This is an account of results in US20040097515A1, “Antimicrobial drug reduced in effect on heart” (priority 2001, published 2004).

One series concerns S. marcescens, 101000. In words: Antimicrobial activity, standard method of Japanese Society of Chemotherapy. It counts as cell-based. On the procedure:
(§1) The antimicrobial activity of the thus-obtained compound was measured by means of the standard method of Japanese Society of Chemotherapy.

In a further series the test system is E. faecalis, 19433. Described as above. It counts as cell-based. On the procedure:
as §1

A further series deals with E. Coli, NIHJ. The description is as above. It counts as cell-based. As for the experimental part:
as §1

The next series relates to S. epidermidis, 56500. The description is as above. It counts as cell-based. On the procedure: as §1
For the next series, the system named is S. aureus, FDA 209-P. Described as above. It counts as cell-based. On the procedure: as §1
A further series has as its system P. aeruginosa, 32121. The series is described as above. The format is cell-based. On the procedure:
as §1

In a further series the test system is P. vulgaris 08601. The description is as above. The format is cell-based. On the procedure:
as §1

A further series concerns P. aeruginosa, 32104. The series is described as above. The format is cell-based. As for the experimental part:
as §1

The conditions of series [1]: Japanese Journal of Chemotherapy, Volume 47, 1999; cited from earlier work.
For series [2] the following is noted: Japanese Journal of Chemotherapy, Volume 47, 1999; cited from earlier work. The source holds these as a separate data set.
The test system of series [3] is guinea pig right ventricular myocardium sample. In words: APD prolonging effect, action potential of guinea pig right ventricular myocardium sample. The format is cell-based. The conditions noted are these: for relative strength of APD prolonging effect, Tukey test / APD prolonging effect (rate of change in APD90 with respect to the initial value), Average: after 60 minute-exposure; for relative strength of APD prolonging effect, Tukey test: statistically significant difference; for relative strength of APD prolonging effect: at each of the measured points; for myocardial action potential duration, effect of exposure: exposed for 10 minutes or more, paired t-test; for APD prolonging effect (rate of change in APD90 with respect to the initial value), Average: Dose 100 (μM). On the procedure:
Slc: Hartley male guinea pigs (body weight: 322 to 667 g each) were employed as subjects.
Each of compound (I), compound (II), and gatifloxacin was dissolved in an aqueous 1% lactic acid solution, to thereby prepare a 10 mM solution. The resultant solution was employed as a drug solution.
Measurement of action potential was performed as follows. Specifically, the heart was quickly removed from each of the guinea pigs, and in a nutrition solution (Krebs-Henseleit) aerated with 95% O2+5% CO2 at room temperature, the right ventricular free wall was dissected to thereby prepare a myocardium sample. By use of an injection needle and platinum bipolar electrodes for electric stimulation, the sample was horizontally fixed onto a silicon block within a 20 ml organ bath (maintained at 36.5±0.5° C.) perfused with the nutrition solution aerated with 95% O2+5% CO2. During the test, the sample was electrically stimulated at a frequency of 1 Hz by means of rectangular pulses (voltage: about 1.3 times the threshold at which contraction of the sample is initiated, duration: 1 msec) provided from an electrostimulator via the platinum bipolar electrodes. The action potential of the cells was measured via glass microelectrodes (electrode resistance: 5 to 30 MΩ) which were filled with a 3 M KCl solution and connected to an amplifier for microelectrodes, and the action potential was recorded and analyzed by use of a computer. After electrical stimulation of the sample was continued for one hour or more, the action potential was measured before administration of the drug solution, and 10, 20, 30, 40, 50, and 60 minutes after administration of the drug solution. At each point in time, the action potential was measured and recorded in triplicate, and the average of the measured potentials was taken as the value for that point in time.
The drug solution (200 μL) was added to the 20 mL organ bath by use of a micropipette (final concentration of the drug solution in the bath: 100 μM). On the basis of the thus-measured action potential waveform, resting membrane potential (RMP), overshoot (OS), action potential amplitude (APA), action potential durations at 20%, 50%, and 90% repolarization (APD20, APD50, and APD90), and maximum rising velocity (Vmax) were obtained.
In each of the groups, the paired t-test was performed on the initial value of APD90 and on the action potential measured at each of the aforementioned points in time. Also, time-course variance analysis was performed, and the action potential after the 60 minute-exposure of the sample to the drug solution was subjected to the Tukey test, to thereby perform comparison between the groups. The level of significance was set at 5%, two-sided.

The mark [4] stands for this setting: 100 μM, Time 10 (minutes after administration).
Where [5] appears, read: 100 μM, Time 20 (minutes after administration).
Where [6] appears, read: 100 μM, Time 30 (minutes after administration).
[7] abbreviates: 100 μM, Time 40 (minutes after administration).
Where [8] appears, read: 100 μM, Time 50 (minutes after administration).
Where [9] appears, read: 100 μM, Time 60 (minutes after administration).
The mark [10] stands for this setting: Time 0, initial value before administration of the drug solution.

“Also recorded” adds a separate entry of the source.

Consider `COc1c(N2CCN[C@@H](C)C2)c(F)cc2c(=O)c(C(=O)O)cn(C3CC3)c12` [Compound (I), 1-Cyclopropyl-6-fluoro-1,4-dihydro-8-methoxy-7-{3-(S)-methylpiperazin-1-yl}-4-oxoquinoline-3-carboxylic acid], for which the antimicrobial activity was 0.10 with S. marcescens, 101000; 0.39 in the series on E. faecalis, 19433; “≦0.003” in the series with E. Coli, NIHJ; 0.20 in the series with S. epidermidis, 56500; 0.05 in the series with S. aureus, FDA 209-P; 0.10 with P. aeruginosa, 32121. Further, the antimicrobial activity in the series on P. vulgaris 08601 stood at 0.006; with P. aeruginosa, 32104 it was 0.20. In addition, the “pharmacokinetic action in the body, difference between the antipodes” value in [1] is “no great difference”. Also, in series [2], the “antimicrobial activity, difference between the antipodes” value was “no great difference”. Further, the “strength of APD prolonging effect compared with gatifloxacin and the antipode” value in series [3] (100 μM) is “significantly lower APD prolonging effect; also recorded: lower than that of the prolonging effect of gatifloxacin or compound (II)”. Further, the “myocardial action potential duration (APD90), Average” value in [3] (setting [4]) is 175.7500; in [3] (setting [5]), 180.2217; in [3] (setting [6]) it was 184.2600; in [3] (setting [7]), 190.6275; in series [3] (setting [8]) it was 192.0675; in [3] (setting [9]) it was 193.5025. For the same compound, the “myocardial action potential duration (APD90), Average” value in series [3] (setting [10]) is reported as 170.3200. In addition, in [3] (100 μM), the “relative strength of APD prolonging effect, Tukey test” value (“relative strength … Tukey test” below) is listed as “compound (II)>gatifloxacin>compound (I)”. Besides, the “relative strength of APD prolonging effect” value in [3] (100 μM) is “compound (II)>gatifloxacin>compound (I)”. Besides, the “myocardial action potential duration, effect of exposure” value in [3] (100 μM) is recorded as “significantly prolonged”. Besides, the “APD prolonging effect (rate of change in APD90 with respect to the initial value), Average” value in series [3] was found to be 11.2206.

As for `COc1c(N2CCN[C@H](C)C2)c(F)cc2c(=O)c(C(=O)O)cn(C3CC3)c12` [Compound (II), 1-Cyclopropyl-6-fluoro-1,4-dihydro-8-methoxy-7-{3-(R)-methylpiperazin-1-yl}-4-oxoquinoline-3-carboxylic acid], the “pharmacokinetic action in the body, difference between the antipodes” value in series [1] is “no great difference”. In [2], the “antimicrobial activity, difference between the antipodes” value is “no great difference”. Also, the “myocardial action potential duration (APD90), Average” value in series [3] (setting [4]) came to 185.9917; in [3] (setting [5]), 191.9500; in series [3] (setting [6]) it was 194.2750; in series [3] (setting [7]), 205.5900; in series [3] (setting [8]), 203.1350; in series [3] (setting [9]), 206.9400. Also, the “myocardial action potential duration (APD90), Average” value in [3] (setting [10]) is 176.1567. For the same compound, the “relative strength … Tukey test” value in [3] (100 μM) was “compound (II)>gatifloxacin>compound (I)”. Besides, the “relative strength of APD prolonging effect” value in series [3] (100 μM) is given as “compound (II)>gatifloxacin>compound (I)”. The “myocardial action potential duration, effect of exposure” value in series [3] (100 μM) was “significantly prolonged”. For the same compound, in series [3], the “APD prolonging effect (rate of change in APD90 with respect to the initial value), Average” value is recorded as 17.1760.

Regarding `COc1c(N2CCNC(C)C2)c(F)cc2c(=O)c(C(=O)O)cn(C3CC3)c12` (stereo not shown) [Gatifloxacin], the “myocardial action potential duration (APD90), Average” value in [3] (setting [4]) came out at 180.6120; in series [3] (setting [5]), 184.9200; in [3] (setting [6]), 192.2467; in series [3] (setting [7]), 190.8950; in series [3] (setting [8]), 201.5533; in series [3] (setting [9]), 196.4925. Moreover, the “myocardial action potential duration (APD90), Average” value in [3] (setting [10]) was found to be 174.8600. The “relative strength … Tukey test” value in series [3] (100 μM) is “compound (II)>gatifloxacin>compound (I)”. Further, the “relative strength of APD prolonging effect” value in series [3] (100 μM) is “compound (II)>gatifloxacin>compound (I)”. In addition, the “myocardial action potential duration, effect of exposure” value in [3] (100 μM) was “significantly prolonged”. Besides, the “APD prolonging effect (rate of change in APD90 with respect to the initial value), Average” value in series [3] was 13.7789.
